# Measured values taken from article PMC4719150 (Biochemistry, 2015).
# Where two headings read alike, the source gives them in different places. Numbered stars: 1 amine (or outer) side, 2 acyl side, 3 side chain; on linkers, the order of the positions; unused ones are H or OH. Bridge positions count the residues as written; N and C are the ends. Square brackets hold non-standard residues; d marks the D form. Peptide text beside a SMILES is read from it. I, II: the chains in the order shown. Actinocin(9to1) = Cc1c2oc3c(C)ccc(C(=O)[*:1])c3nc-2c(C(=O)[*:2])c(N)c1=O; NMeV = CN[C@H](C(=O)O)C(C)C; Sar = CNCC(=O)O
# How the values were obtained:
# [1] = test system: recRSV-L19FD489E-fireSMASh; assay: Peak progeny virus titers after incubation with ASV; format: cell-based, respiratory syncytial virus; details: 3 μM ASV versus vehicle
# [2] = test system: fireSMASh (firefly luciferase fused to SMASh tag); assay: Firefly luciferase activity after virus growth in the presence of ASV; format: cell-based; details: growth of recRSV-L19FD489E-fireSMASh in the presence of 3 μM ASV; 44 hours post-infection
# recIAV WSN-NanoLuc [3] = assay: microbe, parasite or virus in culture; format: cell-based; details: Influenza A virus, BEAS-2B, 40 h, read-out: % Inhibition (anti-IAV)
# recRSV A2-L19F-renilla = assay: microbe, parasite or virus in culture; format: cell-based; details: human respiratory syncytial virus, BEAS-2B, read-out: EC50 RSV A2-L19F-renilla
# recIAV WSN-NanoLuc [4] = details: for EC50: read-out: EC50 IAV WSN-nanoLuc
# [5] = test system: recRSV A2-L19FD489E-fireSMASh; details: for EC50: read-out: EC50 RSV A2-L19FD489E-fireSMASh
# in vitro = details: human
# recIAV WSN-NanoLuc [6] = assay: microbe, parasite or virus in culture; details: Influenza A virus, BEAS-2B, read-out: EC50 IAV WSN-nanoLuc
# BEAS-2B cells = details: uninfected BEAS-2B cells, highest concentration assessed 10 μM, tox = less than 50% cell viability after 44 hours at ≤10 μM; for CC50: read-out: CC50 (PrestoBlue cell viability)
structure (smiles),measurement,setting,value
"C=C[C@@H]1C[C@]1(NC(=O)[C@@H]1C[C@@H](Oc2ncc(OC)c3ccc(Cl)cc23)CN1C(=O)[C@@H](NC(=O)OC(C)(C)C)C(C)(C)C)C(=O)NS(=O)(=O)C1CC1 [ASV, Asunaprevir]",effect on progeny virus titers,[1],no effect
same,reduction of firefly luciferase activity,[2],approximately 90%
"Cc1c2oc3c(C)ccc(C(=O)N[C@@H]4C(=O)N[C@H](C(C)C)C(=O)N5CCC[C@H]5C(=O)N(C)CC(=O)N(C)[C@@H](C(C)C)C(=O)O[C@@H]4C)c3nc-2c(C(=O)N[C@@H]2C(=O)N[C@H](C(C)C)C(=O)N3CCC[C@H]3C(=O)N(C)CC(=O)N(C)[C@@H](C(C)C)C(=O)O[C@@H]2C)c(N)c1=O [Actinomycin D] (I: T[dV]P[Sar][NMeV] / II: T[dV]P[Sar][NMeV]; ester I:1-I:C, II:1-II:C; linker I:N-II:N via Actinocin(9to1))",inhibition at 5 µM,recIAV WSN-NanoLuc [3],104 ± 1.5%
Nc1nc(N)c2nc(CNc3ccc(C(=O)N[C@@H](CCC(=O)O)C(=O)O)cc3)cnc2n1 [Aminopterin],EC50,recRSV A2-L19F-renilla,0.05 µM
same,SI IAV [CC50/EC50],recIAV WSN-NanoLuc [4],"SIIAV 111 SIRSV 143 conf. broad spectrum [79], [80]"
same,SI RSV [CC50/EC50],[5],"SIIAV 111 SIRSV 143 conf. broad spectrum [79], [80]"
same,CC50,in vitro,10 µM
same,EC50,recIAV WSN-NanoLuc [6],0.09 µM
CC(=O)OC[C@H]1O[C@@H]([S-])[C@H](OC(C)=O)[C@@H](OC(C)=O)[C@@H]1OC(C)=O.CCP(CC)CC.[Au+] [Auranofin],CC50 (PrestoBlue cell viability),BEAS-2B cells,tox^d
COc1cc2nc(N3CCCN(C)CC3)nc(NC3CCN(Cc4ccccc4)CC3)c2cc1OC [BIX 01294],EC50 IAV WSN-nanoLuc,recIAV WSN-NanoLuc [4],inactive^e
same,EC50 RSV A2-L19FD489E-fireSMASh,[5],inactive^e
same,CC50,in vitro,> 10 µM
O=C1C(=Cc2ccccc2)C[C@@]2(O)[C@H]3Cc4ccc(O)c5c4[C@@]2(CCN3CC2CC2)[C@H]1O5 [BNTX-7],EC50 IAV WSN-nanoLuc,recIAV WSN-NanoLuc [4],inactive^e
same,effect on IAV reporter strain,recIAV WSN-NanoLuc [4],unaffected
same,SI RSV [CC50/EC50],[5],SIRSV >4
same,EC50,[5],2.5 µM
same,CC50,BEAS-2B cells,> 10 µM
Cc1c(-c2ccc(-c3ccccc3F)cc2)nc2ccc(F)cc2c1C(=O)O [Brequinar],EC50,recRSV A2-L19F-renilla,1.8 µM
same,SI IAV [CC50/EC50],recIAV WSN-NanoLuc [4],"SIIAV >3.8 SIRSV >6.3 conf. broad spectrum [81], [82]"
same,SI RSV [CC50/EC50],[5],"SIIAV >3.8 SIRSV >6.3 conf. broad spectrum [81], [82]"
same,CC50,in vitro,> 10 µM
same,EC50,recIAV WSN-NanoLuc [6],2.6 µM
CNc1ccc2oc(C[C@H]3O[C@@]4(CC[C@H]3C)O[C@H]([C@H](C)C(=O)c3ccc[nH]3)[C@H](C)C[C@H]4C)nc2c1C(=O)O [Calcimycin],CC50 (PrestoBlue cell viability),BEAS-2B cells,tox^d
CCCCCCCCCCCCCCCCCCOCC(COP(=O)([O-])OCC[N+](C)(C)C)OC (centres unmarked) [ET-18-OCH3],EC50 IAV WSN-nanoLuc,recIAV WSN-NanoLuc [4],inactive^e
same,EC50 RSV A2-L19FD489E-fireSMASh,[5],inactive^e
same,CC50,BEAS-2B cells,> 10 µM
CC[C@H]1CN2CCc3cc(OC)c(OC)cc3[C@@H]2C[C@@H]1C[C@H]1NCCc2cc(OC)c(OC)cc21 [Emetine],CC50 (PrestoBlue cell viability),BEAS-2B cells,tox^d
COc1cccc2c1C(=O)c1c(O)c3c(c(O)c1C2=O)C[C@@](O)(C(=O)CO)C[C@@H]3O[C@H]1C[C@H](N)[C@@H](O)[C@H](C)O1 [Epirubicin],inhibition at 5 µM,recIAV WSN-NanoLuc [3],75 ± 3.1%
COc1cc([C@@H]2c3cc4c(cc3[C@@H](O[C@@H]3O[C@@H]5CO[C@@H](C)O[C@H]5[C@H](O)[C@H]3O)[C@H]3COC(=O)[C@H]23)OCO4)cc(OC)c1O [Etoposide],inhibition at 5 µM,recIAV WSN-NanoLuc [3],56 ± 5.6%
CC1=C(/C=C/C(C)=C/C=C/C(C)=C/C(=O)Nc2ccc(O)cc2)C(C)(C)CCC1 [Fenretinide],EC50,recRSV A2-L19F-renilla,4.8 µM
same,EC50 IAV WSN-nanoLuc,recIAV WSN-NanoLuc [4],inactive^e
same,effect on IAV reporter strain,recIAV WSN-NanoLuc [4],unaffected
same,SI RSV [CC50/EC50],[5],"SIRSV >2.8 Dengue [62], HIV [61]"
same,CC50,in vitro,> 10 µM
Nc1ccn([C@@H]2O[C@H](CO)[C@@H](O)C2(F)F)c(=O)n1 [Gemcitabine],EC50,recRSV A2-L19F-renilla,0.05 µM
same,SI IAV [CC50/EC50],recIAV WSN-NanoLuc [4],"SIIAV >100 SIRSV >111 HIV, IAV [49], [50]"
same,SI RSV [CC50/EC50],[5],"SIIAV >100 SIRSV >111 HIV, IAV [49], [50]"
same,CC50,in vitro,> 10 µM
same,EC50,recIAV WSN-NanoLuc [6],0.1 µM
COC(=O)C[C@](O)(CCCC(C)(C)O)C(=O)O[C@@H]1C(OC)=C[C@]23CCCN2CCc2cc4c(cc2[C@H]13)OCO4 [Homoharringtonine],inhibition at 5 µM,recIAV WSN-NanoLuc [3],90 ± 2.6%
CC(=O)[C@]1(O)Cc2c(O)c3c(c(O)c2[C@@H](O[C@H]2C[C@H](N)[C@H](O)[C@H](C)O2)C1)C(=O)c1ccccc1C3=O [Idarubicin],inhibition at 5 µM,recIAV WSN-NanoLuc [3],97 ± 1%
same,CC50 (PrestoBlue cell viability),BEAS-2B cells,tox^d
Oc1ccc(/C=C/c2ccc(/C=C/c3ccc(O)cc3)c(Br)c2)cc1 [K114],EC50 IAV WSN-nanoLuc,recIAV WSN-NanoLuc [4],inactive^e
same,EC50 RSV A2-L19FD489E-fireSMASh,[5],inactive^e
same,CC50,BEAS-2B cells,> 10 µM
Nc1nc2c(c(=O)[nH]1)C[C@@H](CCc1ccc(C(=O)N[C@@H](CCC(=O)O)C(=O)O)cc1)CN2 [Lometrexol],CC50 (PrestoBlue cell viability),BEAS-2B cells,tox^d
CN(Cc1cnc2nc(N)nc(N)c2n1)c1ccc(C(=O)N[C@@H](CCC(=O)O)C(=O)O)cc1 [Methotrexate],inhibition at 5 µM,recIAV WSN-NanoLuc [3],100 ± 0.6%
CCOC(=O)C1=C(C)NC(C)=C(C(=O)OC)C1c1cccc([N+](=O)[O-])c1 (centres unmarked) [Nitrendipine],EC50 IAV WSN-nanoLuc,recIAV WSN-NanoLuc [4],inactive^e
same,EC50 RSV A2-L19FD489E-fireSMASh,[5],inactive^e
same,CC50,in vitro,> 10 µM
Cn1c(=O)c(-c2c(Cl)cccc2Cl)cc2cnc(Nc3ccc(N4CCOCC4)cc3)nc21 [PD173952],CC50 (PrestoBlue cell viability),BEAS-2B cells,tox^d
CCN(CC)CCOc1ccc(Nc2ncc3cc(-c4c(Cl)cccc4Cl)c(=O)n(C)c3n2)cc1 [PD-166285],CC50 (PrestoBlue cell viability),BEAS-2B cells,tox^d
Nc1nc2c(ncn2CCOCP(=O)(O)O)c(=O)[nH]1 [PMEG],SI IAV [CC50/EC50],recIAV WSN-NanoLuc [4],SIIAV 50 SIRSV 100 HPV [67]
same,EC50,recIAV WSN-NanoLuc [4],0.2 µM
same,SI RSV [CC50/EC50],[5],SIIAV 50 SIRSV 100 HPV [67]
same,potency against RSV relative to IAV,[5],approximately 2 fold
same,EC50,[5],0.1 µM
same,CC50,BEAS-2B cells,10 µM
c1cnc2c(c1)ccc1cccnc12 [Phenanthroline],CC50,in vitro,2.4 µM
Cc1nc2ccc(CN(C)c3ccc(C(=O)N[C@@H](CCC(=O)O)C(=O)O)s3)cc2c(=O)[nH]1 [Raltitrexed],inhibition at 5 µM,recIAV WSN-NanoLuc [3],60 ± 6.5%
NC(=O)c1ncn([C@@H]2O[C@H](CO)[C@@H](O)[C@H]2O)n1 [Ribavirin],EC50,recRSV A2-L19F-renilla,2.9 µM
same,SI IAV [CC50/EC50],recIAV WSN-NanoLuc [4],SIIAV >2.2 SIRSV >3.9 broad spectrum [84]
same,SI RSV [CC50/EC50],[5],SIIAV >2.2 SIRSV >3.9 broad spectrum [84]
same,CC50,in vitro,> 10 µM
same,EC50,recIAV WSN-NanoLuc [6],4.5 µM
CN(CCOc1ccc(CC2SC(=O)NC2=O)cc1)c1ccccn1 (centres unmarked) [Rosiglitazone],inhibition at 5 µM,recIAV WSN-NanoLuc [3],35 ± 5%
C[n+]1cc2c3c(ccc2c2ccc4cc5c(cc4c21)OCO5)OCO3 [Sanguinarine],CC50 (PrestoBlue cell viability),BEAS-2B cells,tox^d
O=[N+]([O-])c1ccc2c(c1)S(=O)(=O)C=C2 [Stattic],SI IAV [CC50/EC50],recIAV WSN-NanoLuc [4],SIIAV 3
same,EC50,recIAV WSN-NanoLuc [4],3.3 µM
same,EC50,[5],5.9 µM
same,CC50,BEAS-2B cells,10 µM
CCN(CC)CCNC(=O)c1c(C)[nH]c(/C=C2\C(=O)Nc3ccc(F)cc32)c1C [Sunitinib],CC50 (PrestoBlue cell viability),BEAS-2B cells,tox^d
Cn1nnc2c(C(N)=O)ncn2c1=O [Temozolomide],inhibition at 5 µM,recIAV WSN-NanoLuc [3],55 ± 3.2%
Nc1nc(N)c2nc(-c3ccccc3)c(N)nc2n1 [Triamterene],EC50 IAV WSN-nanoLuc,recIAV WSN-NanoLuc [4],inactive^e
same,EC50 RSV A2-L19FD489E-fireSMASh,[5],inactive^e
same,CC50,in vitro,> 10 µM
CC(C)[C@]12O[C@H]1[C@@H]1O[C@]13[C@]1(O[C@H]1C[C@H]1C4=C(CC[C@@]13C)C(=O)OC4)[C@@H]2O [Triptolide],inhibition at 5 µM,recIAV WSN-NanoLuc [3],103 ± 1.2%
same,EC50,recRSV A2-L19F-renilla,0.6 µM
same,SI (CC50/EC50) value at dose-response testing,recIAV WSN-NanoLuc [4],below two
same,CC50,in vitro,0.3 µM
same,EC50,recIAV WSN-NanoLuc [6],0.15 µM
CC[C@]1(O)C[C@H]2CN(CCc3c([nH]c4ccccc34)[C@@](C(=O)OC)(c3cc4c(cc3OC)N(C=O)[C@H]3[C@@](O)(C(=O)OC)[C@H](OC(C)=O)[C@]5(CC)C=CCN6CC[C@]43[C@@H]65)C2)C1 [Vincristine],inhibition at 5 µM,recIAV WSN-NanoLuc [3],50 ± 2.9%
CC(=O)N[C@H]1[C@H]([C@H](O)[C@H](O)CO)OC(C(=O)O)=C[C@@H]1N=C(N)N [Zanamivir],SI IAV [CC50/EC50],recIAV WSN-NanoLuc [4],SIIAV >500 IAV inhibitor [83]
same,EC50 RSV A2-L19FD489E-fireSMASh,[5],Inactive
same,CC50,in vitro,> 10 µM
same,EC50,recIAV WSN-NanoLuc [6],0.02 µM
